Here are results for 19 compounds from patent US12098148B2, “Therapeutic compounds” (C4X Discovery Limited, priority 2018, dated 2024).

The target of assay [1] is human KEAP1 (N-term, residues 321-609) (Homo sapiens, UniProt Q14145). The assay can be described thus: biochemical.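 Note: fluorescence polarization competition assay of Kelch domain binding to NRF2, 12-point 1:3 dilution series from 10 µM, read after 1 h at room temperature, floor 10 nM.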
Assay [2] relates to NQO1 mRNA in BEAS-2B cells. As to the kind of experiment: Beas2B NQO1 mRNA cell based assay. Also noted: species or system human. The settings on record: Homo sapiens, BEAS-2B, 24 h, 24 h compound treatment, increase in NQO1 mRNA vs vehicle (0.1% DMSO), read-out: EC50. The method in brief:
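BEAS-2B human bronchial epithelial cells exposed to compound for 24 h at 37 °C, 5% CO2. NQO1 mRNA measured by one-step TaqMan RT-qPCR on unpurified lysates, normalized to β-actin; relative expression by ΔΔCT method.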

Chain of human KEAP1 (N-term, residues 321-609) (Q14145 321-609): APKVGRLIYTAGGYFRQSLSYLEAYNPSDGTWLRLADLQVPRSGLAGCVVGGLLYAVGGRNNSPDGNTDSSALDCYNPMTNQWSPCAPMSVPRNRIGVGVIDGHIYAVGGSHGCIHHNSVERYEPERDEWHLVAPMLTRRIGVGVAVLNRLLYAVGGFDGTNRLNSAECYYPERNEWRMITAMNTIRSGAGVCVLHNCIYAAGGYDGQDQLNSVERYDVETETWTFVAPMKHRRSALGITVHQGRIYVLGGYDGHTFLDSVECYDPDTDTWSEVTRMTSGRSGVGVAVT

In general, IC50 refers to the concentration that inhibits the measured activity by half. Higher therefore signals lower potency. As a reminder, the EC50 is the concentration giving half of the maximal effect. Take `CCn1nnc(COc2ccc(Cl)c3c2[C@@H](CN2CCCC2=O)N(C(=O)[C@@H]2CCCC[C@]2(C)C(=O)O)CC3)c1C(F)F` [Example 120, (1S,2R)-2-((S)-5-chloro-8-((5-(difluoromethyl)-1-ethyl-1H-1,2,3-triazol-4-yl)methoxy)-1-((2-oxopyrrolidin-1-yl)methyl)-1,2,3,4-tetrahydroisoquinoline-2-carbonyl)-1-methylcyclohexane-1-carboxylic acid]: in assay [1], the IC50 was determined as 6.2 nM. In addition, in assay [2], the EC50 amounted to 1.2 nM.

In the case of `Cn1nnc(COc2ccc(Cl)c3c2[C@@H](CN2CC(C)(C)CC2=O)N(C(=O)[C@@H]2CCCC[C@]2(C)C(=O)O)CC3)c1C(F)F` [Example 152, (1S,2R)-2-((S)-5-chloro-8-((5-(difluoromethyl)-1-methyl-1H-1,2,3-triazol-4-yl)methoxy)-1-((4,4-dimethyl-2-oxopyrrolidin-1-yl)methyl)-1,2,3,4-tetrahydroisoquinoline-2-carbonyl)-1-methylcyclohexane-1-carboxylic acid], in assay [1], the IC50 was found to be 7.2 nM. For the same compound, the concentration for a half-maximal effect (EC50) in assay [2] was found to be 10 nM.

In turn, `COc1cc(COc2ccc(Br)c3c2[C@@H](CN2Cc4ccccc4C2=O)N(C(=O)[C@@H]2CCCC[C@@H]2C(=O)O)CC3)cc2nnn(C)c12` [Example 37, (1S,2R)-2-((S)-5-bromo-8-((7-methoxy-1-methyl-1H-benzo[d][1,2,3]triazol-5-yl)methoxy)-1-((1-oxoisoindolin-2-yl)methyl)-1,2,3,4-tetrahydroisoquinoline-2-carbonyl)cyclohexane-1-carboxylic acid] displayed an IC50 in assay [1] of 13 nM. The EC50 in assay [2] is 44 nM.

`Cn1cnc2cc(COc3ccc(Br)c4c3[C@@H](CN3Cc5ccccc5C3=O)N(C(=O)[C@@H]3CCCC[C@@H]3C(=O)O)CC4)ccc21` [Example 33, (1S,2R)-2-((S)-5-bromo-8-((1-methyl-1H-benzo[d]imidazol-5-yl)methoxy)-1-((1-oxoisoindolin-2-yl)methyl)-1,2,3,4-tetrahydroisoquinoline-2-carbonyl)cyclohexane-1-carboxylic acid] yielded a 50% inhibitory concentration (IC50) in assay [1] of 5.1 nM. For the same compound, the concentration giving a half-maximal response (EC50) in assay [2] turned out to be 22 nM.

`Cn1nnc(COc2ccc(Cl)c3c2[C@@H](CN2CC4(CC4)CC2=O)N(C(=O)[C@@H]2CC[C@@H](O)C[C@]2(C)C(=O)O)CC3)c1C(F)F` [Example 224, (1S,2R,5R)-2-((S)-5-chloro-8-((5-(difluoromethyl)-1-methyl-1H-1,2,3-triazol-4-yl)methoxy)-1-((6-oxo-5-azaspiro[2.4]heptan-5-yl)methyl)-1,2,3,4-tetrahydroisoquinoline-2-carbonyl)-5-hydroxy-1-methylcyclohexane-1-carboxylic acid] had an IC50 in assay [1] of 5.8 nM. Besides, the EC50 in assay [2] worked out at 42 nM.

`COCc1c(COc2ccc(Cl)c3c2[C@@H](CN2CCCC2=O)N(C(=O)[C@@H]2CCCC[C@]2(C)C(=O)O)CC3)nnn1C` [Example 127, (1S,2R)-2-((S)-5-chloro-8-((5-(methoxymethyl)-1-methyl-1H-1,2,3-triazol-4-yl)methoxy)-1-((2-oxopyrrolidin-1-yl)methyl)-1,2,3,4-tetrahydroisoquinoline-2-carbonyl)-1-methylcyclohexane-1-carboxylic acid] came in with a half-inhibitory concentration (IC50) in assay [1] of 7 nM. In assay [2], the half-maximal effective concentration (EC50) turned out to be 2.6 nM.

For `O=C(O)[C@H]1CCCC[C@H]1C(=O)N1CCc2c(Br)ccc(OCc3nnc4ccccn34)c2[C@H]1CN1Cc2ccccc2C1=O` [Example 16, (1S,2R)-2-((S)-8-([1,2,4]triazolo[4,3-a]pyridin-3-ylmethoxy)-5-bromo-1-((1-oxoisoindolin-2-yl)methyl)-1,2,3,4-tetrahydroisoquinoline-2-carbonyl)cyclohexane-1-carboxylic acid], the IC50 in assay [1] was 8.1 nM. For the same compound, the EC50 in assay [2] amounted to 2 nM.

Regarding `C[C@]1(C(=O)O)CCCC[C@H]1C(=O)N1CCc2c(Cl)ccc(OCc3nnn(C4CC4)c3C(F)F)c2[C@H]1CN1CCCC1=O` [Example 134, (1S,2R)-2-((S)-5-chloro-8-((1-cyclopropyl-5-(difluoromethyl)-1H-1,2,3-triazol-4-yl)methoxy)-1-((2-oxopyrrolidin-1-yl)methyl)-1,2,3,4-tetrahydroisoquinoline-2-carbonyl)-1-methylcyclohexane-1-carboxylic acid], half-maximal inhibition in assay [1] (IC50) was put at 8.2 nM. Further, the EC50 in assay [2] turned out to be 2.2 nM.

Turning to `CC(=O)N1CC[C@H](Oc2c(Cl)cc(Cl)c3c2[C@@H](CN2C(=O)c4ccccc4C2=O)N(C(=O)[C@@H]2CCCC[C@@H]2C(=O)O)CC3)C1` [Example 13, (1S,2R)-2-((S)-8-(((S)-1-Acetylpyrrolidin-3-yl)oxy)-5,7-dichloro-1-((1,3-dioxoisoindolin-2-yl)methyl)-1,2,3,4-tetrahydroisoquinoline-2-carbonyl)cyclohexane-1-carboxylic acid], it took 8.5 nM to reach half-maximal inhibition in assay [1] (IC50). In assay [2], the concentration giving a half-maximal response (EC50) was 530 nM.

With `Cn1nc(COc2ccc(Cl)c3c2[C@@H](CN2CCCC2=O)N(C(=O)[C@@H]2CCCC[C@@H]2C(=O)O)CC3)c2ccccc21` [Example 98, (1S,2R)-2-((S)-5-Chloro-8-((1-methyl-1H-indazol-3-yl)methoxy)-1-((2-oxopyrrolidin-1-yl)methyl)-1,2,3,4-tetrahydroisoquinoline-2-carbonyl) cyclohexane-1-carboxylic acid], the IC50 in assay [1] was found to be 10 nM. Also, the EC50 in assay [2] was 330 nM.

`C[C@]1(C(=O)O)CCCC[C@H]1C(=O)N1CCc2c(Cl)ccc(OCc3nnn(C4COC4)c3C(F)F)c2[C@H]1CN1CC2(CC2)CC1=O` [Example 192, (1S,2R)-2-((S)-5-chloro-8-((5-(difluoromethyl)-1-(oxetan-3-yl)-1H-1,2,3-triazol-4-yl)methoxy)-1-((6-oxo-5-azaspiro[2.4]heptan-5-yl)methyl)-1,2,3,4-tetrahydroisoquinoline-2-carbonyl)-1-methylcyclohexane-1-carboxylic acid]: in assay [1], the IC50 was 8.5 nM. Further, the concentration giving a half-maximal response (EC50) in assay [2] came out at 3.8 nM.

As to `CCn1ncc(COc2ccc(Br)c3c2[C@@H](CN2Cc4ccccc4C2=O)N(C(=O)[C@@H]2CCCC[C@@H]2C(=O)O)CC3)n1` [Example 27, (1S,2R)-2-((S)-5-bromo-8-((2-ethyl-2H-1,2,3-triazol-4-yl)methoxy)-1-((1-oxoisoindolin-2-yl)methyl)-1,2,3,4-tetrahydroisoquinoline-2-carbonyl)cyclohexane-1-carboxylic acid], in assay [1], the IC50 amounted to 8.3 nM. In addition, the concentration for a half-maximal effect (EC50) in assay [2] was found to be 18 nM.

`Cc1cc(COc2ccc(Br)c3c2[C@@H](CN2Cc4ccccc4C2=O)N(C(=O)[C@@H]2CCCC[C@@H]2C(=O)O)CC3)no1` [Example 26, (1S,2R)-2-((S)-5-Bromo-8-((5-methylisoxazol-3-yl)methoxy)-1-((1-oxoisoindolin-2-yl)methyl)-1,2,3,4-tetrahydroisoquinoline-2-carbonyl)cyclohexane-1-carboxylic acid] gave a 50% inhibitory concentration (IC50) in assay [1] of 14 nM. The 50% effective concentration (EC50) in assay [2] was determined as 58 nM.

The compound `Cn1nnc(COc2ccc(Cl)c3c2[C@@H](CN2CC4(CC4)CC2=O)N(C(=O)[C@@H]2CCCC[C@]2(C)C(=O)O)CC3)c1C(F)F` [Example 123, (1S,2R)-2-((S)-5-chloro-8-((5-(difluoromethyl)-1-methyl-1H-1,2,3-triazol-4-yl)methoxy)-1-((6-oxo-5-azaspiro[2.4]heptan-5-yl)methyl)-1,2,3,4-tetrahydroisoquinoline-2-carbonyl)-1-methylcyclohexane-1-carboxylic acid] gave an IC50 in assay [1] of 5.8 nM. Besides, the half-maximal effective concentration (EC50) in assay [2] was determined as 0.26 nM.

In assay [1], `Cn1nnc(COc2ccc(Cl)c3c2[C@@H](CN2CCCC2=O)N(C(=O)[C@H]2CCCC[C@]2(C)C(=O)O)CC3)c1C(F)(F)F` [Example 169, (1S,2S)-2-((S)-5-chloro-8-((1-methyl-5-(trifluoromethyl)-1H-1,2,3-triazol-4-yl)methoxy)-1-((2-oxopyrrolidin-1-yl)methyl)-1,2,3,4-tetrahydroisoquinoline-2-carbonyl)-1-methylcyclohexane-1-carboxylic acid] displayed a half-inhibitory concentration (IC50) of 62 nM. The EC50 in assay [2] turned out to be 140 nM.

In assay [1], `Cn1nnc(COc2ccc(Cl)c3c2[C@@H](CN2CCCC2=O)N(C(=O)[C@H]2CCC[C@H]2C(=O)O)CC3)c1C(F)F` [Example 87, (1R,2S)-2-((S)-5-Chloro-8-((5-(difluoromethyl)-1-methyl-1H-1,2,3-triazol-4-yl)methoxy)-1-((2-oxopyrrolidin-1-yl)methyl)-1,2,3,4-tetrahydroisoquinoline-2-carbonyl)cyclopentane-1-carboxylic acid] gave a concentration for half-maximal inhibition (IC50) of 150 nM. In addition, the EC50 in assay [2] came out at 300 nM.

As to `Cn1nnc(COc2ccc(Cl)c3c2[C@@H](CN2CCCC2=O)N(C(=O)[C@@H]2CCCC[C@]2(C)C(=O)O)CC3)c1C1CC1` [Example 129, (1S,2R)-2-((S)-5-chloro-8-((5-cyclopropyl-1-methyl-1H-1,2,3-triazol-4-yl)methoxy)-1-((2-oxopyrrolidin-1-yl)methyl)-1,2,3,4-tetrahydroisoquinoline-2-carbonyl)-1-methylcyclohexane-1-carboxylic acid], the IC50 in assay [1] amounted to 5.5 nM. Further, in assay [2], the concentration giving a half-maximal response (EC50) came out at 0.95 nM.

In turn, `C[C@]1(C(=O)O)CCCC[C@H]1C(=O)N1CCc2c(Cl)ccc(OC3CCn4cnnc43)c2[C@H]1CN1CC2(CC2)CC1=O` (stereo partly drawn) [Example 209, (1S,2R)-2-((1S)-5-chloro-8-((6,7-dihydro-5H-pyrrolo [2,1-c][1,2,4]triazol-7-yl)oxy)-1-((6-oxo-5-azaspiro[2.4]heptan-5-yl)methyl)-1,2,3,4-tetrahydroisoquinoline-2-carbonyl)-1-methylcyclohexane-1-carboxylic acid] yielded an IC50 in assay [1] of 8.4 nM. In addition, the EC50 in assay [2] came to 290 nM.

Consider `C[C@]1(C(=O)O)CCCC[C@H]1C(=O)N1CCc2c(Cl)ccc(OCc3noc4c3CCCC4)c2[C@H]1CN1CCCC1=O` [Example 138, (1S,2R)-2-((S)-5-chloro-1-((2-oxopyrrolidin-1-yl)methyl)-8-((4,5,6,7-tetrahydrobenzo[d]isoxazol-3-yl)methoxy)-1,2,3,4-tetrahydroisoquinoline-2-carbonyl)-1-methylcyclohexane-1-carboxylic acid], for which, in assay [1], the IC50 is 7.9 nM. For the same compound, the EC50 in assay [2] was found to be 0.8 nM.
